From patent US20100317578A1, “METHOD OF PROTECTING AGAINST STROKE THROUGH THE USE OF A DELTA OPIOID PEPTIDE” (priority 2009, published 2010)

What was measured:
Assay type in all cases: in vivo, Sprague-Dawley rats
[1] = test system: nerve growth factor (NGF); test: ELISA assay of NGF in brain tissues; conditions: striatal and cortical tissues, p>0.05
Experimental: (§1) To examine possible non-opioid effects of DADLE, assays of expression of neurotrophic factors (glial cell line-derived neurotrophic factor (GDNF) and nerve growth factor (NGF)) that have been previously shown to be protective against ischemia were performed. Enzyme-linked immunosorbent assay (ELISA) was conducted on ischemic animals injected either with DADLE or saline (n=6 per group). Following the same drug dosing regimen mentioned above, animals were rapidly decapitated, their brains removed and striatal and frontal cortical tissues quickly dissected. Brain homogenization and supernatant acidification were performed using methods as described in Okragly et al., Exp Neurol 1997, 145:592-596 [37] with minor modifications. Protein concentrations were measured by using the BCA Kit (Pierse, Rockford, Ill. USA). For the measurement of GDNF, mouse monoclonal anti-GDNF antibody (R & D Systems, Inc., Minnesota, USA) was used as a capture antibody and biotinylated goat anti-GDNF antibody (R & D Systems, Inc., Minnesota, USA) was used as a detection antibody. For the measurement of NGF, the NGF Emax TM ImmunoAssay system (Promega Cooperation, Madison, Wis., USA) was used. The THERMOmax 96-well microplate reader (Molecular Devices Corp., Sunnyvale, Calif. USA) was used to measure the optical densities.

p53 mRNA = test: Determination of p53 mRNA expression (northern blot); conditions: 24 hr post-MCAor
Experimental: To examine whether DADLE altered programmed cell death or apoptosis, which has been postulated to mediate ischemia-induced cell injury, the mRNA expression of the apoptotic marker p53 were assayed. At 24 hr and 72 hr after MCAor surgery, randomly selected animals that received either DADLE alone or saline alone were euthanized by rapid decapitation. The striatum was dissected and quickly frozen using dry ice then stored in −80° C. freezer until tissue processing was conducted. Total RNA extraction, northern blot analysis and hybridization were conducted using standard methods as described in Chomczynski et al., Anal Biochem 1987, 162:156-159 and Mattson, Brain Res 2000, 886:47-53 [34,35]. Analyses of resulting bands were quantified using a Macintosh computer-based image analysis system (Image, NIH). Densitometrically determined intensities of p-53 mRNA was normalized to 18S rRNA.

Fas = test: Immunohistochemistry of apoptosis markers, Fas; conditions: ischemic striatum, 72 hours after MCAor
Experimental: (§2) In order to further characterize the effects of DADLE on apoptotic cell death, 20 animals were subjected to the same procedures as above, and the treatment effects of DADLE (n=10) against saline vehicle alone (n=10) were compared. Rats were euthanized at 72 hours after MCAor surgery. The rats were perfused transcardially with 200 ml of cold phosphate-buffered saline (PBS) and 200 ml of 4% paraformaldehyde in PBS. Brains were removed and post-fixed in the same fixative overnight at 4° C. with the subsequent replacement with 30% sucrose in PBS for 72 hours. The brains were coronally sectioned at the thickness of 8 μm. Sections were washed 3 times for 5 minutes in PBS. Sections were then incubated overnight at 4° C. with caspase-3 (Abeam, 1:500) or Fas (Santa Cruz Biotechnology, 1:100) primary antibody and washed 3 times in PBS. […]
(§3) For morphological analyses, immunoreactive cells in the striatum within the ipsilateral to the stroke hemisphere were examined using a Zeiss LSM510 confocal microscope (Oberkochen, Germany). Specifically, 6 coronal sections at every 300 μm that approximately captured the ischemic striatum (AP −2.0 to +2.0 mm from the bregma) were examined from each rat and the number of positive cells was counted in each 6 high power fields and the averages were used for the statistical analyses. […]

[2] = test system: ischemia-induced asymmetrical motor deficits (MCAor); test: Battery of behavioral tests after MCAor surgery
[3] = test system: cerebral infarction in the striatum after MCAor; test: Cerebral infarction assay (TTC staining)
caspase-3 = test: Immunohistochemistry of apoptosis markers, caspase-3; conditions: ischemic striatum, 72 hours after MCAor
Experimental: as §2, §3

[4] = test system: glial cell line-derived neurotrophic factor (GDNF); test: ELISA assay of GDNF in brain tissues; conditions: striatal and cortical tissues, p<0.05
Experimental: as §1

[5] = test system: ischemia-induced forelimb akinesia (MCAor); test: Forelimb akinesia test; conditions: scale 0-2; pooled mean of ischemic animals pretreated with saline, naltrexone alone or naloxone methiodide alone
Experimental: The spontaneous rotational test [32] was performed immediately after the animal's recovery from anesthesia following insertion of the embolus. The animal was placed in a chamber made of transparent Plexiglas (40×40×35.5 cm) and the direction of the animal's rotation was noted over two 5-minute sessions. Two full turns (tight ipsiversive rotations) per minute was considered indicative of a brain insult [17,32].
Finally, the forelimb akinesia test involved pulling each forelimb at 90 degrees away from the body median axis. The return of the forelimb towards the midline was scored as 0 for slow movement with rigidity, 1 for slow movement, and 2 for smooth rapid movement. A score of 1 in the scale for postural bias test or forelimb akinesia test was considered as indicative of CNS dysfunction [17].

[6] = test system: ischemia-induced biased swing activity (MCAor); test: Elevated body swing test (EBST); conditions: pooled mean of ischemic animals pretreated with saline, naltrexone alone or naloxone methiodide alone
Experimental: (§4) After recovery from anesthesia, animals were evaluated on a battery of tests including spontaneous rotational test, elevated body swing test (EBST), postural bias test and forelimb akinesia test.
The EBST is described in detail in Borlongan et al., Exp Neurol 1998, 149:310-321[17], and has been utilized to characterize the biased swing activity of ischemic animals starting at one month post-ischemia and extending up to three months post-surgery. The animal was lifted 20 times by its tail and the direction of the swing was recorded.

[7] = test system: ischemia-induced postural bias (MCAor); test: Postural bias (tail-hang) test; conditions: scale 0-3; pooled mean of ischemic animals pretreated with saline, naltrexone alone or naloxone methiodide alone
Experimental: (§5) The spontaneous rotational test was performed immediately after the animal's recovery from anesthesia following insertion of the embolus. The animal was placed in a chamber made of transparent Plexiglas (40×40×35.5 cm) and the direction of the animal's rotation was noted over two 5-minute sessions. Two full turns (tight ipsiversive rotations) per minute was considered indicative of a brain insult. For the postural bias test and forelimb akinesia test, a semiquantitative scale was used as described in Bederson et al., Stroke 1986, 17:472-476 [33].
The postural tail-hang test involved holding the animal by the tail (similar to the EBST) and noting the positions of the forelimbs. A scale is used for grading the ischemic injury-induced dysfunctions as follows: 0, rats extend straight both forelimbs, no observable deficit; 1, rats keep the left forelimb to the breast and extend straight the right forelimb; 2, rats show decreased resistance to lateral push in addition to behavior in score 1 without circling; 3, rats twist the upper half of their body in addition to behavior in score 2.
Finally, the forelimb akinesia test involved pulling each forelimb at 90 degrees away from the body median axis. The return of the forelimb towards the midline was scored as 0 for slow movement with rigidity, 1 for slow movement, and 2 for smooth rapid movement. […]

[8] = test system: ischemia-induced spontaneous rotational behavior (MCAor); test: Spontaneous rotational test; conditions: pooled mean of ischemic animals pretreated with saline, naltrexone alone or naloxone methiodide alone
Experimental: as §4, §5

SMILES | levels of NGF compared to saline-treated ischemic animals [1] | increment in p-53 mRNA expression in ischemic striatum compared to intact striatum of control, normal animals (p53 mRNA; normalized to 18S rRNA, vehicle 65% increment, not significant vs control (p>0.05)) | p-53 mRNA expression in ischemic striatum compared to vehicle-treated ischemic animals (p53 mRNA; only a trend, p=0.07) | Fas-positive cells compared to vehicle-treated ischemic animals (Fas) | behavior in EBST, spontaneous rotational test, postural bias test and forelimb akinesia test ([2]; rat, in vivo) | mean volume of infarcted striatal tissue ([3]; rat, in vivo) | caspase-3-positive cells compared to vehicle-treated ischemic animals (caspase-3) | levels of GDNF compared to saline-treated ischemic animals [4] | mean akinesia score [5] | mean percentage biased swing response [6] | mean volume of infarcted striatal tissue ([3]; TTC staining at 24 or 72 hr after reperfusion, saline 81.2±5.3 mm^3) | mean postural bias score [7] | mean ipsiversive rotations per minute [8] | behavior in EBST, spontaneous rotational test, postural bias test and forelimb akinesia test ([2]; ischemic rats, pretreatment i.p. before MCAor, throughout the post-MCAor test period (day 0 to 3))
CC(C)C[C@@H](NC(=O)[C@H](Cc1ccccc1)NC(=O)CNC(=O)[C@@H](C)NC(=O)[C@@H](N)Cc1ccc(O)cc1)C(=O)O [DADLE, [D-Ala^2,D-Leu^5]enkephalin] | did not differ | 28% | marked reduction | significant reductions | near-normal behaviors | no detectable infarction | significant reductions | significantly higher |  |  |  |  |  | 
C=CC[N+]1(C)CC[C@]23c4c5ccc(O)c4O[C@H]2C(=O)CC[C@@]3(O)[C@H]1C5 (stereo partly drawn) [naloxone methiodide] |  |  |  |  | significant abnormalities |  |  |  | 1.17±0.15 | 82.8%±12.3 | 78.7±7.4 mm^3 | 2.25±0.31 | 2.52±0.56 rotations per minute | 
O=C1CC[C@@]2(O)[C@H]3Cc4ccc(O)c5c4[C@@]2(CCN3CC2CC2)[C@H]1O5 [naltrexone] |  |  |  |  |  |  |  |  |  | 82.8%±12.3 |  | 2.25±0.31 | 2.52±0.56 rotations per minute | significant abnormalities
